Tested on: wildtype Wnt signaling cascade
Assay: HEK293 TOP Assay (Super TopFlash luciferase reporter, Wnt-3a stimulated)
Format: cell-based
Details: Homo sapiens, HEK293, 16 h, HEK293 TOP reporter cell line, Wnt-3a at EC50, 16 hours incubation, compound dilution series 50 μM to 15 nM
Description: In order to discover and characterize small molecules which inhibit the wildtype Wnt pathway, a cellular reporter assay was employed. The corresponding assay cell was generated by transfection of the mammalian cell line HEK293 (ATCC, #CRL-1573) with the Super TopFlash vector (Morin, Science 275, 1997, 1787-1790; Molenaar et al., Cell 86 (3), 1996, 391-399). The HEK293 cell line is cultivated at 37° C. and 5% CO2 in DMEM (Life Technologies, #41965-039), supplemented with 2 mM glutamine, 20 mM HEPES, 1.4 mM pyruvate, 0.15% Na-bicarbonate and 10% foetal bovine serum (GIBCO, #10270). Stable transfectants were generated by selection with 300 μg/ml Hygromycin.
In preparation of the assay, the two cell lines were plated 24 hrs before beginning the test at 10000 cells per well in a 384 micro titre plate (MTP) in 30 μl growth medium. […] The recombinant human Wnt-3a was thereby applied between 2500 and 5 ng/ml in two-fold dilution steps.
Selective inhibitory activity for small molecules on the wildtype Wnt pathway was determined after parallel incubation of both (TOP and FOP) HEK293 reporter cell lines with a compound dilution series from 50 μM to 15 nM in steps of 3.16-fold dilutions in CAFTY buffer (130 mM sodium chloride, 5 mM potassium chloride, 20 mM HEPES, 1 mM magnesium chloride, 5 mM sodium bicarbonate, pH 7.4) containing 2 mM Ca^2+ and 0.01% BSA.
The compounds were thereby serially prediluted in 100% DMSO and thereafter 50 fold into the CAFTY compound dilution buffer (described above).

| Structure (SMILES) | IC50 |
| --- | --- |
| CNC(=O)c1nc[nH]c1C(=O)Nc1ccc(NC(=O)c2cc(F)cc(C#N)c2)cc1 [Example 371, N^5-{4-[(3-cyano-5-fluorobenzoyl)amino]phenyl}-N^4-methyl-1H-imidazole-4,5-dicarboxamide] | 50 µM |
| CNC(=O)c1nc[nH]c1C(=O)Nc1ccc(NC(=O)c2ccc(OC)c(C)c2)cc1 [Example 355, N^5-{4-[(4-methoxy-3-methylbenzoyl)amino]phenyl}-N^4-methyl-1H-imidazole-4,5-dicarboxamide] | 25 µM |
| CNC(=O)c1nc[nH]c1C(=O)Nc1ccc(NC(=O)c2cc(F)cc(F)c2F)cc1 [Example 347, N^4-methyl-N^5-{4-[(2,3,5-trifluorobenzoyl)amino]phenyl}-1H-imidazole-4,5-dicarboxamide] | 34.5 µM |
| CNC(=O)c1nc[nH]c1C(=O)Nc1ccc(NC(=O)c2ccc(C(F)(F)F)cc2)cc1 [Example 316, N^4-methyl-N^5-(4-{[4-(trifluoromethyl)benzoyl]amino}phenyl)-1H-imidazole-4,5-dicarboxamide] | 13.5 µM |
| CNC(=O)c1nc[nH]c1C(=O)Nc1ccc(NC(=O)c2ccn(C)n2)cc1 [Example 332, N^4-methyl-N^5-(4-{[(1-methyl-1H-pyrazol-3-yl)carbonyl]amino}phenyl)-1H-imidazole-4,5-dicarboxamide] | 9.65 µM |
| CNC(=O)c1nc[nH]c1C(=O)Nc1ccc(NC(=O)c2ccc(Cl)cc2OC)cc1 [Example 310, N^5-{4-[(4-chloro-2-methoxybenzoyl)amino]phenyl}-N^4-methyl-1H-imidazole-4,5-dicarboxamide] | 10.5 µM |
| CNC(=O)c1nc[nH]c1C(=O)Nc1ccc(NC(=O)c2cc(F)c(F)c(Cl)c2)cc1 [Example 362, N^5-{4-[(3-chloro-4,5-difluorobenzoyl)amino]phenyl}-N^4-methyl-1H-imidazole-4,5-dicarboxamide] | 50 µM |
| CNC(=O)c1nc[nH]c1C(=O)Nc1ccc(NC(=O)c2cc(F)cc(F)c2)cc1 [Example 321, N^5-{4-[(3,5-difluorobenzoyl)amino]phenyl}-N^4-methyl-1H-imidazole-4,5-dicarboxamide] | 50 µM |
| CN(C)C(=O)c1[nH]cnc1C(=O)Nc1ccc(NC(=O)c2ccc(F)cc2)cc1 [Example 144, N^4-{4-[(4-fluorobenzoyl)amino]phenyl}-N^5,N^5-dimethyl-1H-imidazole-4,5-dicarboxamide] | 50 µM |
| O=C(Nc1ccc(NC(=O)c2nc[nH]c2C(=O)NCC(F)(F)F)cc1OC(F)(F)F)c1ccc(F)cc1Cl [Example 292, N^4-{4-[(2-chloro-4-fluorobenzoyl)amino]-3-(trifluoromethoxy)phenyl}-N^5-(2,2,2-trifluoroethyl)-1H-imidazole-4,5-dicarboxamide] | 11 µM |
| CNC(=O)c1nc[nH]c1C(=O)Nc1ccc(NC(=O)c2ccnc(Cl)c2)cc1 [Example 351, N^5-(4-{[(2-chloropyridin-4-yl)carbonyl]amino}phenyl)-N^4-methyl-1H-imidazole-4,5-dicarboxamide] | 12.5 µM |
| CNC(=O)c1nc[nH]c1C(=O)Nc1ccc(NC(=O)c2cc(C)cc(C)c2)cc1 [Example 335, N^5-{4-[(3,5-dimethylbenzoyl)amino]phenyl}-N^4-methyl-1H-imidazole-4,5-dicarboxamide] | 21.5 µM |
| CNC(=O)c1nc[nH]c1C(=O)Nc1ccc(NC(=O)c2ccc(C)cc2)cc1 [Example 337, N^4-methyl-N^5-{4-[(4-methylbenzoyl)amino]phenyl}-1H-imidazole-4,5-dicarboxamide] | 23.5 µM |
| CNC(=O)c1nc[nH]c1C(=O)Nc1ccc(NC(=O)c2c(OC)cccc2OC)cc1 [Example 57, N^5-{4-[(2,6-dimethoxybenzoyl)amino]phenyl}-N^4-methyl-1H-imidazole-4,5-dicarboxamide] | 33 µM |
| COc1cc(NC(=O)c2[nH]cnc2C(=O)NCCN(C)C)ccc1NC(=O)c1ccc(F)cc1 [Example 104, N^4-[2-(dimethylamino)ethyl]-N^5-{4-[(4-fluorobenzoyl)amino]-3-methoxyphenyl}-1H-imidazole-4,5-dicarboxamide] | 7.2 µM |
| CC(C)OCCCNC(=O)c1nc[nH]c1C(=O)Nc1ccc(NC(=O)c2ccc(F)cc2Cl)cc1 [Example 383, N^5-{4-[(2-chloro-4-fluorobenzoyl)amino]phenyl}-N^4-[3-(propan-2-yloxy)propyl]-1H-imidazole-4,5-dicarboxamide] | 50 µM |
| O=C(Nc1ccc(NC(=O)c2[nH]cnc2C(=O)NCCN2CCCCC2)cn1)c1ccc(F)cc1 [Example 117, N^5-{6-[(4-fluorobenzoyl)amino]pyridin-3-yl}-N^4-[2-(piperidin-1-yl)ethyl]-1H-imidazole-4,5-dicarboxamide] | 40 µM |
| O=C(Nc1ccc(NC(=O)c2nc[nH]c2C(=O)NC(CO)CO)cc1)c1ccc(F)cc1 [Example 150, N^5-(1,3-dihydroxypropan-2-yl)-N^4-{4-[(4-fluorobenzoyl)amino]phenyl}-1H-imidazole-4,5-dicarboxamide] | 50 µM |

Stronger by IC50, values ahead:

| IC50 | Structure (SMILES) |
| --- | --- |
| 6.7 µM | CN1CCN(CCCNC(=O)c2[nH]cnc2C(=O)Nc2ccc(NC(=O)c3ccc(F)cc3)cc2)CC1 [Example 181, N^4-{4-[(4-fluorobenzoyl)amino]phenyl}-N^5-[3-(4-methylpiperazin-1-yl)propyl]-1H-imidazole-4,5-dicarboxamide] |
| 6.5 µM | CNC(=O)c1nc[nH]c1C(=O)Nc1ccc(NC(=O)c2ccc(C#N)c(F)c2)cc1 [Example 350, N^5-{4-[(4-cyano-3-fluorobenzoyl)amino]phenyl}-N^4-methyl-1H-imidazole-4,5-dicarboxamide] |
| 5.7 µM | COCCNC(=O)c1[nH]cnc1C(=O)Nc1ccc(NC(=O)c2ccc(F)cc2)cc1 [Example 140, N^4-{4-[(4-fluorobenzoyl)amino]phenyl}-N^5-(2-methoxyethyl)-1H-imidazole-4,5-dicarboxamide] |
| 5.25 µM | CNC(=O)c1nc[nH]c1C(=O)Nc1ccc(NC(=O)c2ccc(C)c(F)c2)cc1 [Example 328, N^5-{4-[(3-fluoro-4-methylbenzoyl)amino]phenyl}-N^4-methyl-1H-imidazole-4,5-dicarboxamide] |
| 4.2 µM | CNC(=O)c1nc[nH]c1C(=O)Nc1ccc(NC(=O)c2ccc(F)c(C)c2)cc1 [Example 373, N^5-{4-[(4-fluoro-3-methylbenzoyl)amino]phenyl}-N^4-methyl-1H-imidazole-4,5-dicarboxamide] |
| 3.55 µM | CNC(=O)c1nc[nH]c1C(=O)Nc1ccc(NC(=O)c2ccc(F)cc2)nc1 [Example 115, N^5-{6-[(4-fluorobenzoyl)amino]pyridin-3-yl}-N^4-methyl-1H-imidazole-4,5-dicarboxamide] |
| 3.35 µM | CNC(=O)c1nc[nH]c1C(=O)Nc1ccc(NC(=O)c2ccc(Cl)c(Cl)c2)cc1 [Example 308, N^5-{4-[(3,4-dichlorobenzoyl)amino]phenyl}-N^4-methyl-1H-imidazole-4,5-dicarboxamide] |
| 3.2 µM | CNC(=O)c1nc[nH]c1C(=O)Nc1ccc(NC(=O)c2cccc(F)c2C)cc1 [Example 324, N^5-{4-[(3-fluoro-2-methylbenzoyl)amino]phenyl}-N^4-methyl-1H-imidazole-4,5-dicarboxamide] |
| 3.15 µM | CNC(=O)c1nc[nH]c1C(=O)Nc1ccc(NC(=O)c2ccc(Cl)cc2)cc1 [Example 306, N^5-{4-[(4-chlorobenzoyl)amino]phenyl}-N^4-methyl-1H-imidazole-4,5-dicarboxamide] |
| 2.8 µM | CNC(=O)c1nc[nH]c1C(=O)Nc1ccc(NC(=O)c2ccc(OC)c(F)c2)cc1 [Example 338, N^5-{4-[(3-fluoro-4-methoxybenzoyl)amino]phenyl}-N^4-methyl-1H-imidazole-4,5-dicarboxamide] |
| 2.65 µM | CC(CNC(=O)c1[nH]cnc1C(=O)Nc1ccc(NC(=O)c2ccc(F)cc2)cc1)N1CCN(C)CC1 (stereo not drawn) [Example 205, N^4-{4-[(4-fluorobenzoyl)amino]phenyl}-N^5-[2-(4-methylpiperazin-1-yl)propyl]-1H-imidazole-4,5-dicarboxamide] |
| 2.65 µM | Cc1cc(NC(=O)c2[nH]cnc2C(=O)NCCN2CCCCC2)ccc1NC(=O)c1ccc(F)cc1 [Example 93, N^5-{4-[(4-fluorobenzoyl)amino]-3-methylphenyl}-N^4-[2-(piperidin-1-yl)ethyl]-1H-imidazole-4,5-dicarboxamide] |
| 2.4 µM | Cc1cc(NC(=O)c2[nH]cnc2C(=O)NCCN(C)C)ccc1NC(=O)c1ccccc1Cl [Example 88, N^5-{4-[(2-chlorobenzoyl)amino]-3-methylphenyl}-N^4-[2-(dimethylamino)ethyl]-1H-imidazole-4,5-dicarboxamide] |
| 2.25 µM | O=C(Nc1ccc(NC(=O)c2nc[nH]c2C(=O)NC(CO)CO)cc1)c1ccc(F)cc1Cl [Example 172, N^4-{4-[(2-chloro-4-fluorobenzoyl)amino]phenyl}-N^5-(1,3-dihydroxypropan-2-yl)-1H-imidazole-4,5-dicarboxamide] |
| 1.2 µM | O=C(Nc1ccc(NC(=O)c2[nH]cnc2C(=O)NCCN2CCNC2=O)cc1)c1ccc(F)cc1Cl [Example 399, N^5-{4-[(2-chloro-4-fluorobenzoyl)amino]phenyl}-N^4-[2-(2-oxoimidazolidin-1-yl)ethyl]-1H-imidazole-4,5-dicarboxamide] |
